Assay results: patent US10738030B2, “Modulators of cystic fibrosis transmembrane conductance regulator” (Vertex Pharmaceuticals Incorporated, priority 2016, dated 2020)

Target: T1, F508del (Homo sapiens, UniProt P13569, DEL508-508)
T1 construct: expressed in transfected cells
Assay: Membrane potential optical assay (FRET voltage-sensor dyes), identification of correction compounds
Type: cell-based
Settings: NIH3T3 cells stably expressing F508del, procedures described above; for Emax: maximum efficacy, read-out: Max Efficacy; for EC50: modulation of CFTR activity
Method: (§1) NIH3T3 mouse fibroblasts stably expressing F508del are used for optical measurements of membrane potential. The cells are maintained at 37° C. in 5% CO2 and 90% humidity in Dulbecco's modified Eagle's medium supplemented with 2 mM glutamine, 10% fetal bovine serum, 1×NEAA, β-ME, 1× pen/strep, and 25 mM HEPES in 175 cm^2 culture flasks. For all optical assays, the cells were seeded at 12,000 cells/well in 384-well matrigel-coated plates and cultured for 18-24 hrs at 37° C. for the potentiator assay. For the correction assays, the cells are cultured at 37° C. with and without compounds for 18-24 hours.
Membrane potential optical methods for assaying F508del modulation properties of compounds.
The optical membrane potential assay utilized voltage-sensitive FRET sensors described by Gonzalez and Tsien (See Gonzalez, J. E. and R. Y. Tsien (1995) “Voltage sensing by fluorescence resonance energy transfer in single cells” Biophys J 69(4): 1272-80, and Gonzalez, J. E. and R. Y. Tsien (1997) “Improved indicators of cell membrane potential that use fluorescence resonance energy transfer” Chem Biol 4(4): 269-77) in combination with instrumentation for measuring fluorescence changes such as the Voltage/Ion Probe Reader (VIPR) (See, Gonzalez, J. E., K. Oades, et al. (1999) “Cell-based assays and instrumentation for screening ion-channel targets” Drug Discov Today 4(9): 431-439).
These voltage sensitive assays are based on the change in fluorescence resonant energy transfer (FRET) between the membrane-soluble, voltage-sensitive dye, DiSBAC2(3), and a fluorescent phospholipid, CC2-DMPE, which is attached to the outer leaflet of the plasma membrane and acts as a FRET donor. Changes in membrane potential (Vm) cause the negatively charged DiSBAC2(3) to redistribute across the plasma membrane and the amount of energy transfer from CC2-DMPE changes accordingly. The changes in fluorescence emission were monitored using VIPR™ II, which is an integrated liquid handler and fluorescent detector designed to conduct cell-based screens in 96- or 384-well microtiter plates.
To identify small molecules that correct the trafficking defect associated with F508del; a single-addition HTS assay format was developed. The cells were incubated in serum-free medium for 16 hrs at 37° C. in the presence or absence (negative control) of test compound. As a positive control, cells plated in 384-well plates were incubated for 16 hrs at 27° C. to “temperature-correct” F508del. The cells were subsequently rinsed 3× with Krebs Ringers solution and loaded with the voltage-sensitive dyes. To activate F508del, 10 μM forskolin and the CFTR potentiator, genistein (20 μM), were added along with Cl^−-free medium to each well. The addition of Cl^−-free medium promoted Cl^− efflux in response to F508del activation and the resulting membrane depolarization was optically monitored using the FRET-based voltage-sensor dyes.
• Bath Solution #1: (in mM) NaCl 160, KCl 4.5, CaCl2 2, MgCl2 1, HEPES 10, pH 7.4 with NaOH. • Chloride-free bath solution: Chloride salts in Bath Solution #1 (above) are substituted with gluconate salts. • CC2-DMPE: Prepared as a 10 mM stock solution in DMSO and stored at −20° C. • DiSBAC2(3): Prepared as a 10 mM stock in DMSO and stored at −20° C. Cell Culture
as §1, with “seeded at 30,000/well in 384-well” for “seeded at 12,000 cells/well in 384-well”, “cultured for 2 hrs at” for “cultured for 18-24 hrs at”, “37° C. before culturing at 27° C. for 24 hrs for the” for “37° C. for the”, “cultured at 27° C. or 37° C.” for “cultured at 37° C.”, “compounds for 16-24 hours.” for “compounds for 18-24 hours.”

T1 sequence (P13569 with tags, fused parts or gaps DEL508-508): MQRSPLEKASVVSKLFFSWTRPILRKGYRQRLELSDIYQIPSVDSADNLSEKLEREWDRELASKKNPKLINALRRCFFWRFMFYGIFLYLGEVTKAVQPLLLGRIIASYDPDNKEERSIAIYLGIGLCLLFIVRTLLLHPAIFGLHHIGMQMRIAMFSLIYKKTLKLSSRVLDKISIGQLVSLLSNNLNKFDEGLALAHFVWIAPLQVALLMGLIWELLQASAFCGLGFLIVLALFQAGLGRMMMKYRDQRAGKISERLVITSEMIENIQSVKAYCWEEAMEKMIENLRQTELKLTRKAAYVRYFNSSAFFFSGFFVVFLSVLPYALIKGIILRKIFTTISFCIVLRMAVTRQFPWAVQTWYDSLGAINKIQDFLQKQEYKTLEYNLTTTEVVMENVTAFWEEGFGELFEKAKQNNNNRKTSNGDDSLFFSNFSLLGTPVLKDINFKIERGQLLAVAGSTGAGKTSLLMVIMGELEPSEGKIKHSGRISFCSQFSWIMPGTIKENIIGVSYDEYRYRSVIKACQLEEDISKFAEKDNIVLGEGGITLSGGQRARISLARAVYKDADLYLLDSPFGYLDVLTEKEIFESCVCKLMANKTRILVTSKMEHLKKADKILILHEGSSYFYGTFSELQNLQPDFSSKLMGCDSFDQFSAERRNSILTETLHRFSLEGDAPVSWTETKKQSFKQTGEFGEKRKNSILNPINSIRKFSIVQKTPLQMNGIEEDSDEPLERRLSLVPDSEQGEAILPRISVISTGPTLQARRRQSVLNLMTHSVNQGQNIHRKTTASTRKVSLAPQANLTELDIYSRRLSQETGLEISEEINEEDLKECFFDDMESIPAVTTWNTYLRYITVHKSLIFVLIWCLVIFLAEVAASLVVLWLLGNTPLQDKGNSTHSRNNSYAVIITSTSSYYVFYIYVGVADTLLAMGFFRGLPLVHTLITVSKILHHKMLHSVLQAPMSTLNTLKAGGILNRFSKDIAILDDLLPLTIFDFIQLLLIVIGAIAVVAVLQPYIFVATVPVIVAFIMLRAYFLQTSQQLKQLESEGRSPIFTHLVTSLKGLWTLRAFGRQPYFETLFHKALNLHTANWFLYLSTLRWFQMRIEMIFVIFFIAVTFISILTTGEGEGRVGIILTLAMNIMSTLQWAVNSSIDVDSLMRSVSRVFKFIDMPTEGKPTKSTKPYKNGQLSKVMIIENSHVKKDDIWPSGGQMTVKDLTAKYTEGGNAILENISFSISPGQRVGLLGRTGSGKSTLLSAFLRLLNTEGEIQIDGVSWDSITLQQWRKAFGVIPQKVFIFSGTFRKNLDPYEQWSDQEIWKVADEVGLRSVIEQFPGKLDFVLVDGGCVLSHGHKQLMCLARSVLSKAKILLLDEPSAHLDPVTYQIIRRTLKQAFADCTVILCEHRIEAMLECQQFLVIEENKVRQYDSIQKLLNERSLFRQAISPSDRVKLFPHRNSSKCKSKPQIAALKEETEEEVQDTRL

Structure (SMILES)	Emax [%]	EC50 [µM]
C=CC(C)Oc1nc(-c2cc(F)cc(OCC(C)C)c2)ccc1C(=O)NS(=O)(=O)c1cccc(N)n1 (stereo not drawn) [Compound 42, N-[(6-amino-2-pyridyl)sulfonyl]-6-(3-fluoro-5-isobutoxy-phenyl)-2-(1-methylallyloxy)pyridine-3-carboxamide]	> 80	< 3
CCCCOc1nc(-c2cc(F)cc(OCC(C)C)c2)ccc1C(=O)NS(=O)(=O)c1cccc(N)n1 [Compound 63, N-[(6-amino-2-pyridyl)sulfonyl]-2-butoxy-6-(3-fluoro-5-isobutoxy-phenyl)pyridine-3-carboxamide]	> 80	< 3
CCN(CC)c1nc(-c2cc(F)cc(OCC(C)C)c2)ccc1C(=O)NS(=O)(=O)c1cccc(N)n1 [Compound 53, N-[(6-amino-2-pyridyl)sulfonyl]-2-(diethylamino)-6-(3-fluoro-5-isobutoxy-phenyl)pyridine-3-carboxamide]	> 80	< 3
CC(C)COc1cc(F)cc(-c2ccc(C(=O)NS(=O)(=O)c3cccc(N)n3)c(NC(C)C(C)C)n2)c1 (stereo not drawn) [Compound 54, N-[(6-amino-2-pyridyl)sulfonyl]-2-(1,2-dimethylpropylamino)-6-(3-fluoro-5-isobutoxy-phenyl)pyridine-3-carboxamide]	30 to 80	3 to 10
CCCOc1nc(-c2cc(F)cc(OCC(C)C)c2)ccc1C(=O)NS(=O)(=O)c1cccc(N)n1 [Compound 27, N-[(6-amino-2-pyridyl)sulfonyl]-6-(3-fluoro-5-isobutoxy-phenyl)-2-propoxy-pyridine-3-carboxamide]	> 80	< 3
CC(C)COc1cc(F)cc(-c2ccc(C(=O)NS(=O)(=O)c3cccc(N)n3)c(OC(C)CC(F)(F)F)n2)c1 (stereo not drawn) [Compound 9, N-[(6-amino-2-pyridyl)sulfonyl]-6-(3-fluoro-5-isobutoxy-phenyl)-2-(3,3,3-trifluoro-1-methyl-propoxy)pyridine-3-carboxamide]	30 to 80	< 3
CC(C)COc1cc(F)cc(-c2ccc(C(=O)NS(=O)(=O)c3cccc(N)n3)c(N(C(C)C)C(C)C)n2)c1 [Compound 41, N-[(6-amino-2-pyridyl)sulfonyl]-2-(diisopropylamino)-6-(3-fluoro-5-isobutoxy-phenyl)pyridine-3-carboxamide]	> 80	< 3
CCCCCOc1nc(-c2cc(F)cc(OCC(C)C)c2)ccc1C(=O)NS(=O)(=O)c1cccc(N)n1 [Compound 11, N-[(6-amino-2-pyridyl)sulfonyl]-6-(3-fluoro-5-isobutoxy-phenyl)-2-pentoxy-pyridine-3-carboxamide]	> 80	< 3
CC(C)COc1cc(F)cc(-c2ccc(C(=O)NS(=O)(=O)c3cccc(N)n3)c(OC(C)C)n2)c1 [Compound 5, N-[(6-amino-2-pyridyl)sulfonyl]-6-(3-fluoro-5-isobutoxy-phenyl)-2-isopropoxy-pyridine-3-carboxamide]	> 80	< 3
CC(C)COc1cc(F)cc(-c2ccc(C(=O)NS(=O)(=O)c3ccn[nH]3)c(NCC(C)(C)C)n2)c1 [Compound 72, 2-(2,2-dimethylpropylamino)-6-(3-fluoro-5-isobutoxy-phenyl)-N-(1H-pyrazol-5-ylsulfonyl)pyridine-3-carboxamide]	30 to 80	3 to 10
CC(C)COc1cc(F)cc(-c2ccc(C(=O)NS(=O)(=O)c3cccc(N)n3)c(N(C)C(C)C)n2)c1 [Compound 31, N-[(6-amino-2-pyridyl)sulfonyl]-6-(3-fluoro-5-isobutoxy-phenyl)-2-[isopropyl(methyl)amino]pyridine-3-carboxamide]	> 80	< 3
CC(C)COc1cc(F)cc(-c2ccc(C(=O)NS(=O)(=O)c3cccc(N)n3)c(OC(C)C(C)(C)C)n2)c1 (stereo not drawn) [Compound 25, N-[(6-amino-2-pyridyl)sulfonyl]-6-(3-fluoro-5-isobutoxy-phenyl)-2-(1,2,2-trimethylpropoxy)pyridine-3-carboxamide]	30 to 80	< 3
